Holding throughout (format): functional
Assay [1] concerns Staphylococcus aureus. Put plainly: Antibacterial activity against Staphylococcus aureus ATCC 25923.
In assay [2] the test system is Escherichia coli. Put plainly: Antibacterial activity against Escherichia coli ATCC 25922.
Assay [3] deals with Pseudomonas aeruginosa. The assay can be described thus: Antibacterial activity against Pseudomonas aeruginosa VR5.
Assay [4] deals with Pseudomonas aeruginosa. The assay can be described thus: Antibacterial activity against Pseudomonas aeruginosa ATCC 27853.
Assay [5] relates to Staphylococcus aureus. Put plainly: Antibacterial activity against Staphylococcus aureus MR 0.13.
The test system of assay [6] is Escherichia coli. The assay can be described thus: Antibacterial activity against Escherichia coli DC2, hyperpermeable strain.

SMILES strings stand for the structures. Bounds are passed on as bounds.

Our source for the MIC values is ChEMBL document CHEMBL1150474, “Synthesis of new penem dithiocarbamates” (1993).

As usually defined, the MIC is the lowest concentration that inhibits growth of the organism. Lower therefore signals greater potency.

As for `CC1(C)S[C@@H]2[C@H](NC(=O)[C@H](N)c3ccccc3)C(=O)N2[C@H]1C(=O)O.CC1(C)[C@H](C(=O)O)N2C(=O)C[C@H]2S1(=O)=O`, the MIC worked out at 0.25 µg/mL in assay [1]; 8 µg/mL in assay [2]; 0.25 µg/mL in assay [3]; 32 µg/mL in assay [4]; 0.12 µg/mL in assay [5].
`C[C@@H](O)[C@H]1C(=O)N2C(C(=O)[O-])=C(CSC(=S)N3CCCC3)S[C@H]12.[Na+]`: the MIC in assay [6] is 0.5 µg/mL; in assay [1] it was 0.03 µg/mL; in assay [2], > 32 µg/mL; in assay [3], > 32 µg/mL; in assay [4], > 32 µg/mL; in assay [5], 0.12 µg/mL.
In the case of `C[C@@H](O)[C@H]1C(=O)N2C(C(=O)[O-])=C(CSC(=S)N(C)Cc3ccccc3)S[C@H]12.[Na+]`, the MIC in assay [6] was 1 µg/mL; in assay [1], 0.06 µg/mL; in assay [2], > 32 µg/mL; in assay [3], 32 µg/mL; in assay [4], > 32 µg/mL; in assay [5], 0.5 µg/mL.
In the case of `C[C@@H](O)[C@H]1C(=O)N2C(C(=O)[O-])=C(CSC(=S)N3CCN(C)CC3)S[C@H]12.[Na+]`, the MIC is 0.5 µg/mL in assay [6]; 0.03 µg/mL in assay [1]; 4 µg/mL in assay [2]; 4 µg/mL in assay [3]; > 32 µg/mL in assay [4]; 0.06 µg/mL in assay [5].
`C[C@@H](O)[C@H]1C(=O)N2C(C(=O)[O-])=C(CSC(=S)N3CCN(C(=O)c4ccc(O)c(O)c4)CC3)S[C@H]12.[Na+]`: the MIC in assay [6] was 0.5 µg/mL; in assay [1], 0.25 µg/mL; in assay [2] it was > 32 µg/mL; in assay [4], > 32 µg/mL; in assay [5], 1 µg/mL.
As for `C[C@@H]([O-])[C@H]1C(=O)N2C(C(=O)[O-])=C(CSC(=S)N3CC[N+](C)(C)CC3)S[C@H]12.[Na+]`, the MIC in assay [6] is 2 µg/mL; in assay [1] it was 0.03 µg/mL; in assay [2], 4 µg/mL; in assay [3], 4 µg/mL; in assay [4] it was > 32 µg/mL; in assay [5], 0.03 µg/mL.
For the molecule `C[C@@H](O)[C@H]1C(=O)N2C(C(=O)[O-])=C(CSC(=S)N3CCNCC3)S[C@H]12.[Na+]`, the MIC in assay [6] was 4 µg/mL; in assay [1], 0.12 µg/mL; in assay [2], 8 µg/mL; in assay [3], 4 µg/mL; in assay [4] it was > 32 µg/mL; in assay [5] it was 0.25 µg/mL.
For the molecule `C[C@@H](O)[C@H]1C(=O)N2C(C(=O)[O-])=C(CSC(=S)N(C)CC(N)=O)S[C@H]12.[Na+]`, the MIC was 0.5 µg/mL in assay [6]; 0.12 µg/mL in assay [1]; 8 µg/mL in assay [2]; 4 µg/mL in assay [3]; > 32 µg/mL in assay [4]; 0.03 µg/mL in assay [5].
`C[C@@H](O)[C@H]1C(=O)N2C(C(=O)[O-])=C(CSC(=S)N(C)OCc3ccccc3)S[C@H]12.[Na+]`: the MIC in assay [6] is 2 µg/mL; in assay [1], 0.03 µg/mL; in assay [2] it was > 32 µg/mL; in assay [3], 32 µg/mL; in assay [4], > 32 µg/mL; in assay [5], 0.12 µg/mL.
Turning to `C[C@@H](O)[C@H]1C(=O)N2C(C(=O)[O-])=C(CSC(=S)N(CCO)CCO)S[C@H]12.[Na+]`, the MIC is 4 µg/mL in assay [6]; 0.25 µg/mL in assay [1]; 32 µg/mL in assay [2]; 2 µg/mL in assay [3]; > 32 µg/mL in assay [4]; 0.5 µg/mL in assay [5].
Turning to `C[C@@H](O)[C@H]1C(=O)N2C(C(=O)[O-])=C(CSC(=S)N(C)CCc3ccccn3)S[C@H]12.[Na+]`, the MIC in assay [6] is 2 µg/mL; in assay [1] it was 0.06 µg/mL; in assay [2], > 32 µg/mL; in assay [3], > 32 µg/mL; in assay [4], > 32 µg/mL; in assay [5] it was 0.12 µg/mL.
Regarding `CC(=O)N1CCN(C(=S)SCC2=C(C(=O)[O-])N3C(=O)[C@H]([C@@H](C)O)[C@H]3S2)CC1.[Na+]`, the MIC in assay [6] was 4 µg/mL; in assay [1], 0.12 µg/mL; in assay [2], 16 µg/mL; in assay [3], 16 µg/mL; in assay [4], > 32 µg/mL; in assay [5], 0.12 µg/mL.
Consider `C[C@@H](O)[C@H]1C(=O)N2C(C(=O)[O-])=C(CSC(=S)N(C)c3ccccc3)S[C@H]12.[Na+]`, for which the minimal inhibitory concentration (MIC) is 1 µg/mL in assay [6]; 0.03 µg/mL in assay [1]; > 32 µg/mL in assay [2]; > 32 µg/mL in assay [3]; > 32 µg/mL in assay [4]; 0.25 µg/mL in assay [5].
Regarding `C[C@@H](O)[C@H]1C(=O)N2C(C(=O)[O-])=C(CSC(=S)N3CCOCC3)S[C@H]12.[Na+]`, the MIC in assay [6] was 0.5 µg/mL; in assay [1], 0.03 µg/mL; in assay [2], 32 µg/mL; in assay [3], 0.5 µg/mL; in assay [4], > 32 µg/mL; in assay [5], 0.06 µg/mL.
As for `C[C@@H](O)[C@H]1C(=O)N2C(C(=O)[O-])=C(CSC(=S)N(C)c3ccccn3)S[C@H]12.[Na+]`, the minimal inhibitory concentration (MIC) in assay [6] is 1 µg/mL; in assay [1] it was 0.06 µg/mL; in assay [2] it was > 32 µg/mL; in assay [3], > 32 µg/mL; in assay [4] it was > 32 µg/mL; in assay [5] it was 0.5 µg/mL.
Regarding `CC(=O)OCCN(CCOC(C)=O)C(=S)SCC1=C(C(=O)[O-])N2C(=O)[C@H]([C@@H](C)O)[C@H]2S1.[Na+]`, the MIC in assay [6] was 2 µg/mL; in assay [1] it was 0.12 µg/mL; in assay [2] it was > 32 µg/mL; in assay [3], > 32 µg/mL; in assay [4], > 32 µg/mL; in assay [5] it was 0.5 µg/mL.
Turning to `C[C@@H](O)[C@H]1C(=O)N2C(C(=O)[O-])=C(CSC(=S)N(C)C)S[C@H]12.[Na+]`, the MIC was 0.12 µg/mL in assay [6]; 0.03 µg/mL in assay [1]; 32 µg/mL in assay [2]; 1 µg/mL in assay [3]; > 32 µg/mL in assay [4]; 0.06 µg/mL in assay [5].
